From the supplement of paper PMC11061612

Assays:
Experiment in all cases: Bliss excess, mean over the matrix (fraction); higher = more synergy
[1] = tested on: CAPAN-1 (Pancreatic Carcinoma)
Method in brief: (§1)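 After 24 hours at 37°C and 5% CO2 in 1536-well plates, cells in DMEM/F12 or RPMI plus 10% FBS received two-drug dose matrices for 72 hours. Viability came from CellTiter-Glo 2.0 luminescence and was scaled as inhibition, anchored at 0 by vehicle wells and at 1 by blank wells. Combination Emax is taken as the second-highest inhibition in the matrix, and Bliss excess as the observed combination effect less EA + EB − EA·EB, with EA and EB the single-agent effects.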

[2] = tested on: NCI-H69 (Small Cell Lung Carcinoma)
Method in brief: as §1

[3] = tested on: MHH-PREB-1 (B-Cell Non-Hodgkin's Lymphoma)
Method in brief: as §1

[4] = tested on: K5 (Thyroid Gland Carcinoma)
Method in brief: as §1

[5] = tested on: HDLM-2 (Hodgkin's Lymphoma)
Method in brief: as §1

[6] = tested on: 639-V (Bladder Carcinoma)
Method in brief: as §1

[7] = tested on: Mewo (Melanoma)
Method in brief: as §1

[8] = tested on: LoVo (Colorectal Carcinoma)
Method in brief: as §1

[9] = tested on: UMC-11 (Other Solid Carcinomas)
Method in brief: as §1

[10] = tested on: Hs-633T (Other Solid Carcinomas)
Method in brief: as §1

[11] = tested on: HCC-15 (Squamous Cell Lung Carcinoma)
Method in brief: as §1

[12] = tested on: NCI-H2795 (Mesothelioma)
Method in brief: as §1

[13] = tested on: EN (Endometrial Carcinoma)
Method in brief: as §1

[14] = tested on: SH-4 (Melanoma)
Method in brief: as §1

[15] = tested on: NCI-H2461 (Mesothelioma)
Method in brief: as §1

[16] = tested on: SK-OV-3 (Ovarian Carcinoma)
Method in brief: as §1

[17] = tested on: HO-1-u-1 (Oral Cavity Carcinoma)
Method in brief: as §1

[18] = tested on: SW626 (Colorectal Carcinoma)
Method in brief: as §1

[19] = tested on: NB14 (Neuroblastoma)
Method in brief: as §1

[20] = tested on: RPMI-6666 (Non-Cancerous)
Method in brief: as §1

| Structure (SMILES) | Bliss excess [1] | Bliss excess [2] | Bliss excess [3] | Bliss excess [4] | Bliss excess [5] | Bliss excess [6] | Bliss excess [7] | Bliss excess [8] | Bliss excess [9] | Bliss excess [10] | Bliss excess [11] | Bliss excess [12] | Bliss excess [13] | Bliss excess [14] | Bliss excess [15] | Bliss excess [16] | Bliss excess [17] | Bliss excess [18] | Bliss excess [19] | Bliss excess [20] |
| --- | --- | --- | --- | --- | --- | --- | --- | --- | --- | --- | --- | --- | --- | --- | --- | --- | --- | --- | --- | --- |
| NC1(C(=O)N[C@@H](CCO)c2ccc(Cl)cc2)CCN(c2ncnc3[nH]ccc23)CC1 [Capivasertib] + Cn1cnc2c(F)c(Nc3ccc(Br)cc3Cl)c(C(=O)NOCCO)cc21 [Selumetinib] (first compound max 10 µM, 7x7, partner max 10 µM) | -0.0081 | -0.0198 | -0.0067 | 0.0944 | -0.0118 | -0.0183 | 0.0069 | -0.004 | 0.0032 | 0.0259 | 0.0366 | 0.0097 | 0.0288 | -0.0106 | -0.0393 | -0.0629 | 0.126 | 0.0124 | -0.0654 | 0.0604 |
| Cc1nc(Nc2ncc(C(=O)Nc3c(C)cccc3Cl)s2)cc(N2CCN(CCO)CC2)n1 [Dasatinib] + CC(=O)Nc1cccc(-n2c(=O)n(C3CC3)c(=O)c3c(Nc4ccc(I)cc4F)n(C)c(=O)c(C)c32)c1 [Trametinib] (first compound max 2 µM, 7x7, partner max 1 µM) | 0.0044 | -0.048 | -0.0504 | 0.0175 | -0.0467 | -0.0398 | 0.0254 | 0.104 | -0.0733 | 0.0302 | 0.193 | -0.0513 | -0.0056 | -0.0721 | -0.0384 | -0.075 | -0.0219 | 0.0385 | -0.065 | 0.0193 |
| COc1cccc2c1C(=O)c1c(O)c3c(c(O)c1C2=O)C[C@@](O)(C(=O)CO)C[C@@H]3O[C@H]1C[C@H](N)[C@H](O)[C@H](C)O1 [Doxorubicin] + Cc1cc2ncnn2cc1Nc1ncc2c(n1)n(C1CCOCC1)c(=O)n2C [AZD7648] (first compound max 1 µM, 7x7, partner max 10 µM) | 0.0038 | 0.0064 | 0.0891 | 0.0319 | 0.0106 | 0.117 | 0.0082 | 0.0105 | 0.07 | 0.118 | 0.0127 | 0.0227 | 0.0108 | 0.024 | -0.0108 | -0.0049 | 0.0091 | 0.0033 | 0.0203 | 0.103 |
| COc1cc2ncnc(Nc3ccc(F)c(Cl)c3)c2cc1OCCCN1CCOCC1 [Gefitinib] + CC(C)n1c(=O)n(C)c2cnc3cc(F)c(-c4ccc(OCCCN5CCCCC5)nc4)cc3c21 [AZD1390] (first compound max 10 µM, 7x7, partner max 0.3 µM) | -0.0286 | -0.0122 | -0.0748 | -0.0479 | -0.0768 | -0.0765 | -0.0712 | -0.0418 | -0.0399 | -0.0684 | -0.0442 | -0.0631 | -0.0318 | -0.0669 | -0.0733 | -0.0442 | -0.0212 | -0.0777 | -0.0145 | -0.0657 |
| CS(=O)(=O)CCNCc1ccc(-c2ccc3ncnc(Nc4ccc(OCc5cccc(F)c5)c(Cl)c4)c3c2)o1 [Lapatinib] + C[C@@H](Oc1cc(-c2cnn(C3CCNCC3)c2)cnc1N)c1c(Cl)ccc(F)c1Cl [Crizotinib] (first compound max 10 µM, 7x7, partner max 10 µM) | -0.0937 | -0.0303 | -0.0164 | -0.0213 | -0.0545 | -0.0596 | -0.032 | -0.0217 | -0.0964 | -0.0338 | -0.0179 | -0.0569 | -0.0418 | -0.0365 | -0.0523 | -0.0268 | -0.0264 | -0.0681 | -0.0338 | -0.0624 |
| CC(=O)c1c(C)c2cnc(Nc3ccc(N4CCNCC4)cn3)nc2n(C2CCCC2)c1=O [Palbociclib] + CC1(C)CCC(CN2CCN(c3ccc(C(=O)NS(=O)(=O)c4ccc(NCC5CCOCC5)c([N+](=O)[O-])c4)c(Oc4cnc5[nH]ccc5c4)c3)CC2)=C(c2ccc(Cl)cc2)C1 [Venetoclax] (first compound max 10 µM, 7x7, partner max 1 µM) | -0.019 | -0.0624 | -0.0187 | 0.0216 | 0.0073 | -0.0686 | -0.0235 | -0.0178 | 0.0737 | -0.0251 | -0.0364 | -0.0365 | -0.0405 | -0.0734 | -0.0712 | -0.0531 | -0.0121 | -0.0152 | -0.0103 | -0.0674 |
| CC(=O)c1c(C)c2cnc(Nc3ccc(N4CCNCC4)cn3)nc2n(C2CCCC2)c1=O [Palbociclib] + Cc1c2c(nn1C)CSCc1cc(n(C)n1)CSc1cc(c3ccccc3c1)OCCCc1c(C(=O)O)n(C)c3c-2c(Cl)ccc13 [AZD5991] (first compound max 10 µM, 7x7, partner max 1 µM) | -0.033 | -0.0378 | -0.0405 | -0.046 | -0.072 | -0.0492 | -0.0291 | -0.0584 | -0.0475 | 0.004 | -0.0501 | 0.0419 | -0.0544 | -0.0267 | -0.056 | -0.0569 | -0.0069 | -0.0211 | -0.0498 | -0.0533 |
| CC(=O)c1c(C)c2cnc(Nc3ccc(N4CCNCC4)cn3)nc2n(C2CCCC2)c1=O [Palbociclib] + Cn1cnc2c(F)c(Nc3ccc(Br)cc3Cl)c(C(=O)NOCCO)cc21 [Selumetinib] (first compound max 10 µM, 7x7, partner max 10 µM) | -0.0741 | -0.0071 | -0.0401 | -0.0341 | -0.0362 | -0.0833 | -0.0844 | 0.0093 | 0.079 | 0.0767 | -0.0069 | -0.0173 | -0.0205 | 0.0333 | -0.0034 | -0.0419 | 0.0772 | -0.057 | 0.0461 | -0.0324 |
